Article PMC5421785, “Citrullination only infrequently impacts peptide binding to HLA class II MHC” (PLoS ONE, 2017)
Where two headings read alike, the source gives them in different places. Square brackets hold non-standard residues; d marks the D form. Peptide text beside a SMILES is read from it. Cit = NC(=O)NCCC[C@H](N)C(=O)O

What was measured:
HLA-DRB1*01:01 = target: T1, HLA-DRB1*01:01 (Homo sapiens, UniProt P01903+P01911, A100R/D57E/F55L/F60I/F76Y/I96L/L162R/M171V/P40L/Q125E/R42F/V115G/Y59C); experiment: HLA class II peptide binding, inhibition of radiolabeled peptide binding to purified MHC
T1 construct: EBV transformed homozygous cell lines were used as sources of MHC molecules; endogenous in cells; host or cells: EBV transformed homozygous cell lines

HLA-DRB1*04:01 = target: T2, HLA-DRB1*04:01 (Homo sapiens, UniProt P01903+P01911, A100K/A169T/F76Y/I96L/K127E/L162R/M171V/N62H/P40V/Q125Y/R42H/S133A/S149N/S66Y/V115G/V209L/W38E); experiment: as above
T2 construct: EBV transformed homozygous cell lines were used as sources of MHC molecules; endogenous in cells; host or cells: EBV transformed homozygous cell lines

[1] = citrullinated 15-mer peptide (X = citrulline), purified HLA-DRB1*01:01, read-out: DRB1*01:01 binding capacity, Cit peptide (IC50 nM)
[2] = citrullinated 15-mer peptide (X = citrulline), purified HLA-DRB1*04:01, read-out: DRB1*04:01 binding capacity, Cit peptide (IC50 nM)
[3] = citrullinated 15-mer (X), purified MHC, inhibition of radiolabeled peptide binding, dash = IC50 >40,000 nM, read-out: DRB1*01:01 binding capacity, Cit peptide (IC50 nM)
[4] = citrullinated 15-mer (X), purified MHC, inhibition of radiolabeled peptide binding, dash = IC50 >40,000 nM, read-out: DRB1*04:01 binding capacity, Cit peptide (IC50 nM)
[5] = citrullinated peptide as listed (X at Cit position), read-out: DRB1*01:01 binding capacity Cit peptide (IC50 nM)
[6] = value of the wild-type (non-citrullinated) counterpart of the listed peptide, read-out: DRB1*01:01 binding capacity WT peptide (IC50 nM)
[7] = citrullinated peptide as listed (X at Cit position), read-out: DRB1*04:01 binding capacity Cit peptide (IC50 nM)
[8] = value of the wild-type (non-citrullinated) counterpart of the listed peptide, read-out: DRB1*04:01 binding capacity WT peptide (IC50 nM)
[9] = ratio of WT IC50 to Cit IC50, >1 = citrullination increases binding

| Compound | IC50 (HLA-DRB1*01:01; [1]) [nM] | IC50 (HLA-DRB1*04:01; [2]) [nM] | further results |
| --- | --- | --- | --- |
| CC[C@H](C)[C@H](NC(=O)[C@H](CCCNC(N)=O)NC(=O)[C@H](CO)NC(=O)[C@H](CCC(=O)O)NC(=O)[C@H](CCC(=O)O)NC(=O)CN)C(=O)N[C@@H](CO)C(=O)N[C@@H](CC(C)C)C(=O)N1CCC[C@H]1C(=O)N[C@@H](CC(C)C)C(=O)N1CCC[C@H]1C(=O)N[C@@H](CC(N)=O)C(=O)N[C@@H](Cc1ccccc1)C(=O)N[C@@H](CO)C(=O)N[C@@H](CO)C(=O)O [GEESXISLPLPNFSS] (H-GEES[Cit]ISLPLPNFSS-OH) | 646 | 8410 |  |
| C[C@H](NC(=O)[C@@H](NC(=O)CNC(=O)[C@@H]1CCCN1C(=O)CNC(=O)CN)[C@@H](C)O)C(=O)N[C@@H](CO)C(=O)N[C@@H](CCCNC(=N)N)C(=O)N1CCC[C@H]1C(=O)N[C@@H](CO)C(=O)N[C@@H](CO)C(=O)N[C@@H](CO)C(=O)N[C@@H](CCCNC(N)=O)C(=O)N[C@@H](CO)C(=O)N[C@@H](Cc1ccc(O)cc1)C(=O)O [GGPGTASRPSSSXSY] (H-GGPGTASRPSSS[Cit]SY-OH) |  |  | IC50 (HLA-DRB1*01:01; [3]): 13800 nM; IC50 (HLA-DRB1*04:01; [4]): > 40000 nM |
| C[C@H](NC(=O)[C@@H](NC(=O)CNC(=O)[C@@H]1CCCN1C(=O)CNC(=O)CN)[C@@H](C)O)C(=O)N[C@@H](CO)C(=O)N[C@@H](CCCNC(N)=O)C(=O)N1CCC[C@H]1C(=O)N[C@@H](CO)C(=O)N[C@@H](CO)C(=O)N[C@@H](CO)C(=O)N[C@@H](CCCNC(=N)N)C(=O)N[C@@H](CO)C(=O)N[C@@H](Cc1ccc(O)cc1)C(=O)O [GGPGTASXPSSSRSY] (H-GGPGTAS[Cit]PSSSRSY-OH) |  |  | IC50 (HLA-DRB1*01:01; [3]): 10400 nM; IC50 (HLA-DRB1*04:01; [4]): > 40000 nM |
| CC(C)C[C@H](NC(=O)CNC(=O)[C@@H](NC(=O)[C@H](Cc1ccccc1)NC(=O)CNC(=O)[C@H](CCCNC(N)=O)NC(=O)[C@H](Cc1c[nH]cn1)NC(=O)CN)[C@@H](C)O)C(=O)N[C@@H](CCC(N)=O)C(=O)NCC(=O)N[C@@H](CC(C)C)C(=O)N1CCC[C@H]1C(=O)NCC(=O)N1CCC[C@H]1C(=O)N1CCC[C@H]1C(=O)O [GHXGFTGLQGLPGPP] (H-GH[Cit]GFTGLQGLPGPP-OH) | 0.65 | 2340 |  |
| CC[C@H](C)[C@H](NC(=O)CN)C(=O)N[C@H](C(=O)NCC(=O)N[C@@H](CC(C)C)C(=O)N1CCC[C@H]1C(=O)NCC(=O)N[C@@H](CCC(N)=O)C(=O)N[C@@H](CCCNC(=N)N)C(=O)NCC(=O)N[C@@H](CCC(=O)O)C(=O)N[C@@H](CCCNC(N)=O)C(=O)NCC(=O)N[C@@H](Cc1ccccc1)C(=O)N1CCC[C@H]1C(=O)O)C(C)C [GIVGLPGQRGEXGFP] (H-GIVGLPGQRGE[Cit]GFP-OH) | 6.7 | 5800 |  |
| CC[C@H](C)[C@H](NC(=O)CN)C(=O)N[C@H](C(=O)NCC(=O)N[C@@H](CC(C)C)C(=O)N1CCC[C@H]1C(=O)NCC(=O)N[C@@H](CCC(N)=O)C(=O)N[C@@H](CCCNC(N)=O)C(=O)NCC(=O)N[C@@H](CCC(=O)O)C(=O)N[C@@H](CCCNC(=N)N)C(=O)NCC(=O)N[C@@H](Cc1ccccc1)C(=O)N1CCC[C@H]1C(=O)O)C(C)C [GIVGLPGQXGERGFP] (H-GIVGLPGQ[Cit]GERGFP-OH) | 3.6 | 2050 |  |
| CC[C@H](C)[C@H](NC(=O)[C@@H](NC(=O)[C@@H](NC(=O)[C@H](CCCCN)NC(=O)CN)[C@@H](C)O)C(C)C)C(=O)N[C@@H](CCC(=O)O)C(=O)N[C@@H](Cc1ccc(O)cc1)C(=O)N[C@@H](CCCNC(=N)N)C(=O)N[C@@H](CO)C(=O)N[C@@H](CCC(N)=O)C(=O)N[C@@H](CCCCN)C(=O)N[C@H](C(=O)N[C@@H](CO)C(=O)N[C@@H](CCCNC(N)=O)C(=O)N[C@@H](CC(C)C)C(=O)O)[C@@H](C)O [GKTVIEYRSQKTSXL] (H-GKTVIEYRSQKTS[Cit]L-OH) |  |  | IC50 (HLA-DRB1*01:01; [5]): 9.3 nM; IC50 (HLA-DRB1*01:01; [6]): 29 nM; IC50 (HLA-DRB1*04:01; [7]): 138 nM; IC50 (HLA-DRB1*04:01; [8]): 646 nM |
| CC[C@H](C)[C@H](NC(=O)[C@@H](NC(=O)[C@@H](NC(=O)[C@H](CCCCN)NC(=O)CN)[C@@H](C)O)C(C)C)C(=O)N[C@@H](CCC(=O)O)C(=O)N[C@@H](Cc1ccc(O)cc1)C(=O)N[C@@H](CCCNC(N)=O)C(=O)N[C@@H](CO)C(=O)N[C@@H](CCC(N)=O)C(=O)N[C@@H](CCCCN)C(=O)N[C@H](C(=O)N[C@@H](CO)C(=O)N[C@@H](CCCNC(=N)N)C(=O)N[C@@H](CC(C)C)C(=O)O)[C@@H](C)O [GKTVIEYXSQKTSRL] (H-GKTVIEY[Cit]SQKTSRL-OH) |  |  | IC50 (HLA-DRB1*01:01; [5]): 7.1 nM; IC50 (HLA-DRB1*01:01; [6]): 29 nM; IC50 (HLA-DRB1*04:01; [7]): 153 nM; IC50 (HLA-DRB1*04:01; [8]): 646 nM |
| N=C(N)NCCC[C@H](NC(=O)[C@H](CCC(=O)O)NC(=O)CNC(=O)[C@H](CCCNC(=N)N)NC(=O)[C@@H]1CCCN1C(=O)CN)C(=O)NCC(=O)N[C@@H](Cc1ccccc1)C(=O)N1CCC[C@H]1C(=O)NCC(=O)N[C@@H](CCC(=O)O)C(=O)N[C@@H](CCCNC(N)=O)C(=O)NCC(=O)N[C@@H](CO)C(=O)N1CCC[C@H]1C(=O)O [GPRGERGFPGEXGSP] (H-GPRGERGFPGE[Cit]GSP-OH) | 31100 | > 40000 |  |
| CC(C)[C@H](NC(=O)CNC(=O)[C@@H](NC(=O)[C@@H]1CCCN1C(=O)CN)[C@@H](C)O)C(=O)N[C@H](C(=O)NCC(=O)N1CCC[C@H]1C(=O)N[C@@H](CCCCN)C(=O)NCC(=O)N[C@@H](C)C(=O)N[C@@H](CCCNC(N)=O)C(=O)NCC(=O)N[C@@H](C)C(=O)N[C@@H](CCC(N)=O)C(=O)O)[C@@H](C)O [GPTGVTGPKGAXGAQ] (H-GPTGVTGPKGA[Cit]GAQ-OH) | 569 | > 40000 |  |
| CC(C)C[C@H](NC(=O)[C@H](C)NC(=O)[C@H](CO)NC(=O)CN)C(=O)N[C@@H](CCCNC(=N)N)C(=O)N1CCC[C@H]1C(=O)N[C@@H](CO)C(=O)N[C@H](C(=O)N[C@@H](CO)C(=O)N[C@@H](CCCNC(N)=O)C(=O)N[C@@H](CO)C(=O)N[C@@H](CC(C)C)C(=O)N[C@@H](Cc1ccc(O)cc1)C(=O)N[C@@H](C)C(=O)N[C@@H](CO)C(=O)O)[C@@H](C)O [GSALRPSTSXSLYAS] |  |  | IC50 (HLA-DRB1*01:01; [3]): 25 nM; IC50 (HLA-DRB1*04:01; [4]): 803 nM |

The next lines start with results.

| IC50 (HLA-DRB1*01:01; [1]) [nM] | IC50 (HLA-DRB1*04:01; [2]) [nM] | Compound | further results |
| --- | --- | --- | --- |
| 565 | > 40000 | CC[C@H](C)[C@H](NC(=O)CN)C(=O)N[C@@H](C)C(=O)NCC(=O)N[C@@H](C)C(=O)N1CCC[C@H]1C(=O)NCC(=O)N[C@@H](Cc1ccccc1)C(=O)N1CCC[C@H]1C(=O)NCC(=O)N1CCC[C@H]1C(=O)N[C@@H](CCCNC(N)=O)C(=O)NCC(=O)N1CCC[C@H]1C(=O)N1CCC[C@H]1C(=O)O [GIAGAPGFPGPXGPP] (H-GIAGAPGFPGP[Cit]GPP-OH) |  |
| 514 | > 40000 | CC(C)C[C@H](NC(=O)CNC(=O)[C@@H]1CCCN1C(=O)[C@H](C)NC(=O)CNC(=O)[C@@H]1CCCN1C(=O)[C@H](CC(C)C)NC(=O)CN)C(=O)N[C@@H](CCCNC(N)=O)C(=O)NCC(=O)N[C@@H](CC(C)C)C(=O)N1CCC[C@H]1C(=O)NCC(=O)N[C@@H](CCCCN)C(=O)N[C@@H](CC(=O)O)C(=O)O [GLPGAPGLXGLPGKD] (H-GLPGAPGL[Cit]GLPGKD-OH) |  |
| 64 | 14900 | CSCC[C@H](NC(=O)[C@@H](NC(=O)CNC(=O)[C@@H]1CCCN1C(=O)[C@H](CCC(N)=O)NC(=O)CNC(=O)[C@H](CCCNC(N)=O)NC(=O)[C@H](C)NC(=O)CNC(=O)[C@H](CCC(N)=O)NC(=O)[C@@H]1CCCN1C(=O)CN)C(C)C)C(=O)NCC(=O)N[C@@H](Cc1ccccc1)C(=O)N1CCC[C@H]1C(=O)O [GPQGAXGQPGVMGFP] (H-GPQGA[Cit]GQPGVMGFP-OH) |  |
| 18000 | > 40000 | N=C(N)NCCC[C@H](NC(=O)[C@H](CCC(=O)O)NC(=O)CNC(=O)[C@@H]1CCCN1C(=O)[C@H](Cc1ccccc1)NC(=O)CNC(=O)[C@H](CCCNC(N)=O)NC(=O)[C@H](CCC(=O)O)NC(=O)CNC(=O)[C@H](CCCNC(=N)N)NC(=O)[C@@H]1CCCN1C(=O)CN)C(=O)NCC(=O)N[C@@H](CO)C(=O)N1CCC[C@H]1C(=O)O [GPRGEXGFPGERGSP] (H-GPRGE[Cit]GFPGERGSP-OH) |  |
| > 40000 | > 40000 | C[C@H](NC(=O)CNC(=O)[C@H](CCCCN)NC(=O)[C@@H]1CCCN1C(=O)CNC(=O)[C@H](CC(=O)O)NC(=O)[C@H](CCCCN)NC(=O)CNC(=O)[C@H](CO)NC(=O)[C@@H]1CCCN1C(=O)CN)C(=O)N[C@@H](CCCNC(N)=O)C(=O)NCC(=O)N[C@@H](CC(=O)O)C(=O)N[C@@H](CO)C(=O)O [GPSGKDGPKGAXGDS] (H-GPSGKDGPKGA[Cit]GDS-OH; N-terminus and C-terminus assumed) | DRB1*01:01 binding capacity, WT/cit ratio (HLA-DRB1*01:01; [9]): 1.0; DRB1*04:01 binding capacity, WT/cit ratio (HLA-DRB1*04:01; [9]): 1.0 |
| 23400 | > 40000 | N=C(N)NCCC[C@H](NC(=O)[C@H](CCC(=O)O)NC(=O)CNC(=O)[C@H](CCCNC(N)=O)NC(=O)[C@@H]1CCCN1C(=O)CN)C(=O)NCC(=O)N[C@@H](Cc1ccccc1)C(=O)N1CCC[C@H]1C(=O)NCC(=O)N[C@@H](CCC(=O)O)C(=O)N[C@@H](CCCNC(=N)N)C(=O)NCC(=O)N[C@@H](CO)C(=O)N1CCC[C@H]1C(=O)O [GPXGERGFPGERGSP] (H-GP[Cit]GERGFPGERGSP-OH) |  |
